Test results as given in patent US12622917B2, “High-activity Wnt pathway inhibitor compound” (ADLAI NORTYE BIOPHARMA CO., LTD., priority 2020, dated 2026).

Tests used:
Assay type in all cases: cell-based
RKO = experiment: Proliferation inhibition, non-Wnt mutant control cell line RKO; settings: Homo sapiens, Wnt-independent control cell line, 96 hours, read-out: Antiproliferative IC50 RKO
From the text: (§1) The cell lines used in the experiment are Colo205 and DU4475 cell lines whose Wnt pathway is continuously activated and whose proliferation is Wnt pathway-dependent; while the BELA and RKO cell lines, whose Wnt pathway is not activated under normal circumstances and the proliferation is independent of Wnt pathway, as control cell lines. It is Judged that the inhibitory effect of the compound of the present invention on Wnt-dependent proliferation is not caused by other non-specific toxicity.
(§2) Treat the Colo205, Du4475, HELA and RKO cell lines cultured in their respective mediums in the logarithmic growth phase, collect the cells and prepare a uniform cell suspension of known concentration, and then add it to the 96-well cell culture plate Cell suspension, so that each well contains 1000 cells. Put it into a 5% CO2 incubator and incubate at 37° C. for 20-24 h. On the second day, the fully dissolved, 3-fold serially diluted compound was added to each cell culture well, so that the final maximum concentration in the cell culture well was 20 uM, and the culture was continued for 96 hours. In this test, Promega's cell viability detection test is used for detection. The more the cells proliferate, the stronger the final signal intensity will be. The detection instrument is SpectraMax, full wavelength mode. The wells only added with DMSO were used as positive control wells, and the wells that were not inoculated with cells were used as negative control wells. […] The IC50 value of cell proliferation inhibition was used to evaluate the inhibitory effect of the compound on the Wnt pathway and the toxic effect on normal cells (Table 2).

DU4475 = experiment: Proliferation inhibition, Wnt mutant cell line DU4475; settings: Homo sapiens, DU-4475; DU4475, Wnt pathway-dependent, 96 hours; read-out: Antiproliferative IC50 DU4475
From the text: as §1, §2

[1] = tested on: Colo205-LUC-TCF/LEF M1 reporter cell line (Wnt pathway); experiment: Colo205-LUC-TCF/LEF M1 reporter gene (luciferase) inhibition; settings: 4 hours incubation, luciferase readout
From the text: Colo205 cell line (Cell Bank of Chinese Academy of Sciences, Cat #TCHu102) was purchased from the Cell Bank of Chinese Academy of Sciences. After expansion and subculture, in the exponential growth phase of the cells, transfection with lipo3000 liposome transfection with TCF/LEF transcription factors Driven luciferase reporter plasmid (Promega). […] The plasmid carries a resistance gene for resistance screening. Transfection was carried out in 10 cm culture dishes using conventional complete medium without resistance. After 2 days, the medium with resistance was replaced, and the culture was continued. After that, the resistant medium was replaced every 2 days, and the suspended cells were discarded. The original medium was centrifuged to remove cells and debris and retained as an adaptive medium. When the cells covered the culture dish, the cells were digested, counted, and passaged in a 96-well plate, so that the average number of cells contained in each well was 1.5/well, and the adaptive medium was used for passage. The rest of the cells were frozen. After subculture, culture for 4 hours to allow the cells to adhere to the wall, and then observe the number of cells in each well under a microscope. Wells with only 1 cell per well were labeled as monoclonal wells. Afterwards, normal culture was performed, and the culture medium was replaced every 2 days, and observed. There are holes where the monoclonal cells continue to grow in the early stage, and they are labeled twice, and can be replaced with normal resistant medium. When a monoclonal well was overgrown with a 96-well plate, it is digested and passaged to a 24-well culture plate. After the 24-well plate is overgrown, it is passaged to a 96-well plate and a 6-well plate. The cells in a 96-well plate are at least 6 wells, of which 3 wells were added with known Wnt inhibitors, and the other 3 wells were not treated. After 24 hours, the cells in the 96-well plate were added with a fluorescence detection reagent to detect the fluorescence intensity. Cell lines with fluorescent expression when not treated and decreased fluorescent light after inhibition were selected and further cultured. The Colo205-LUC-TCF/LEF-M1 cell line is one of the cell lines screened above. Its growth curve, cell shape, and cell growth state are similar to those of the original Colo205 cells, and the ratio of the fluorescent signals of the inhibitor-treated and untreated cells is the largest among all cell lines, and the ratio can reach 4-5 times when inhibited at 4 hours, which was completely suitable for the screening of Wnt inhibitors in the later stage.
The Colo205-LUC-TCF/LEF M1 cell line is a reporter tool cell stably transfected with the pGL4.49-LUC2-TCF/LEF vector. The β-catenin Wnt pathway is continuously activated. After adding the inhibitor, the Wnt pathway is inhibited. The expression of firefly luciferase regulated by the[…] cis-element decreased, and after adding the detection substrate, the detected light signal decreased accordingly, so as to detect the inhibitory effect of the compound.
To a 96-well cell culture plate, add 100 uL of the compound with a maximum concentration of 20 uM to each well, and make a 3-fold serial dilution of the compound concentration. Then 10,000 colo205 cells stably transfected with the reporter gene and 100 uL medium were inoculated into each well, and corresponding positive and negative control wells were made at the same time. Put the cells in a 5% CO2 incubator and incubate at 37° C. for 4 hours. After 4 hours, remove the culture medium, add 100 uL of reagent (Promega) containing the corresponding firefly luciferase substrate to each well, and measure the activity of luciferase reporter gene. Luminescence intensity was read with SpectraMax in full wavelength mode. […]

Colo205 = experiment: Proliferation inhibition, Wnt mutant cell line Colo205; settings: Homo sapiens, COLO 205; Colo205, Wnt pathway-dependent, 96 hours; read-out: Antiproliferative IC50 Colo205
From the text: as §1, §2

HepG2 = experiment: Proliferation inhibition, HepG2 cell line; settings: Homo sapiens; HepG2 cells, 96 hours culture, cell viability detection; read-out: Antiproliferative IC50 HepG2
From the text: The cell lines used in the test are NCI-H929 and HepG2 cell lines whose Wnt pathway is continuously activated and whose proliferation is Wnt pathway-dependent; the inhibitory effect of the compound of the present invention on Wnt-dependent proliferation is judged.
Treat the NCI-H929 and HepG2 cell lines cultured in their respective mediums in the logarithmic growth phase, collect the cells and prepare a uniform cell suspension of known concentration, and then add the cell suspension to the 96-well cell culture plate solution so that each well contains 4000 cells. Put it into a […] incubator and incubate at 37° C. for 20-24 h. On the second day, the fully dissolved, 3-fold serially diluted compound was added to each cell culture well, so that the final maximum concentration in the cell culture well was 20 uM, and the culture was continued for 96 hours. In this test, Promega's cell viability detection test is used for detection. The more the cells proliferate, the stronger the final signal intensity will be. The detection instrument is SpectraMax, full wavelength mode. The wells only added with DMSO were used as positive control wells, and the wells that were not inoculated with cells were used as negative control wells. […] The IC50 value of cell proliferation inhibition was used to evaluate the inhibitory effect of the compound on the Wnt pathway and the toxic effect on normal cells (Table 3).

Structure (SMILES)	IC50 (RKO) [nM]	IC50 (DU4475) [nM]	IC50 [1] [nM]	IC50 (Colo205) [nM]	IC50 (HepG2) [nM]
COC[C@H]1Cn2ccc3nc(NCc4ccc(OC5CCC(F)(F)CC5)nc4)nc(c32)N1C [85 (W132)]	5500	11.6	7	8.3	
C[C@H]1C(=O)N2CCCc3nc(NCc4ccc(OC5CCC(F)(F)CC5)nc4)nc(c32)N1C [98 (W188)]	> 10000	31		31	
CO[C@@H](C)[C@H]1C(=O)N2CCCc3nc(NCc4ccc(Oc5ccc(C(F)(F)F)nc5)nc4)nc(c32)N1C [113 (W247), (S)-5-((S)-1-methoxyethyl)-4-methyl-2-(((6-((6-(trifluoromethyl)pyridin-3-yl)oxo)pyridin-3-yl)methyl)amino)-4,5,9,10-tetrahydro-6H,8H-pyrido[3,2,1-de]pteridin-6-one]	> 10000	64	31	48	
CN1c2nc(NCc3ccc(Oc4ccc(C(F)(F)F)nc4)nc3)nc3c2N(CCC3)C(=O)[C@@H]1C(C)(C)O [122 (W272), (S)-5-(2-hydroxypropan-2-yl)-4-methyl-2-(((6-((6-(trifluoromethyl)pyridin-3-yl)oxo)pyridine-3-yl)methyl)amino)-4,5,9,10-tetrahydro-6H,8H-pyrido[3,2,1-de]pteridin-6-one]	> 10000	58		87	
O=C1[C@@H]2COCCN2c2nc(NCc3ccc(Oc4ccc(C(F)(F)F)nc4)nc3)nc3c2N1CCC3 [124 (W278), (S)-2-(((6-((6-(trifluoromethyl)pyridin-3-yl)oxo)pyridin-3-yl)methyl)amino)-5,6,8a,9, 11,12-Hexahydro-4H,8H-[1,4]oxazino[3,4-h]pyrido[3,2,1-de]pteridin-8-one]	> 10000	51		152	
C[C@H]1C(=O)N2CCCc3nc(NCc4ccc(Cc5ccc(C(F)(F)F)cc5)nc4)nc(c32)N1C [138 (W271), (S)-4,5-dimethyl-2-(((6-(4-(trifluoromethyl)benzyl)pyridin-3-yl)methyl)amino)-4,5,9, 10-tetrahydro-6H,8H-pyrido[3,2,1-de]pteridin-6-one]	> 10000	40	25	48	
CN1c2nc(NCc3ccc(Oc4cnc(C(F)(F)F)nc4)nc3)nc3c2N(CCC3)C(=O)[C@@H]1C(C)(C)O [145 (W331)]	> 10000	53		43	
CC(C)[C@H]1C(=O)N2CCCc3nc(NCc4ccc(Cn5ccc(C(F)(F)F)n5)nc4)nc(c32)N1C [148 (W250)]	> 10000	13	31	27	
COC[C@H]1C(=O)N2CCCc3nc(NCc4ccc(Oc5cnc(C(F)(F)F)nc5)nc4)nc(c32)N1C [154 (W258)]	> 10000	30	30	37	
CO[C@H](C)[C@H]1C(=O)N2CCCc3nc(NCc4ccc(Oc5cnc(C(F)(F)F)nc5)nc4)nc(c32)N1C [156 (W264)]	> 10000	13	39	27	
O=C1[C@@H]2CCCN2c2nc(NCc3ccc(Oc4cnc(C(F)(F)F)nc4)nc3)nc3c2N1CCC3 [157 (W262)]	> 10000	18	24	31	
CC(C)[C@H]1C(=O)N2CCCc3nc(NCc4ccc(Oc5cnc(C(F)(F)F)nc5)nc4)nc(c32)N1C [159 (W259)]	> 10000	< 0.5	2	4.6	
CN1c2nc(NCc3ccc(Oc4cnc(C(F)(F)F)nc4)nc3)nc3c2N(CCC3)C(=O)[C@@H]1c1cccc(F)c1 [174 (W314)]	> 10000	37		66	
[2H]C([2H])([2H])OC[C@@]1(C)C(=O)N2CCCc3nc(NCc4ccc(Oc5ccc(C(F)(F)F)nc5)nc4)nc(c32)N1C([2H])([2H])[2H] [182 (W395)]	> 10000		7	10.9	24
CN1c2nc(NCc3ccc(Oc4ccc(C(F)(F)F)nc4)nc3)nc3c2N(CCC3)C(=O)[C@@H]1C(F)(F)F [185 (W310)]	> 10000	99	69	63	
CN1c2nc(NCc3ccc(Oc4ccc(C(F)(F)F)nc4)nc3)nc3c2N(CCC3)C(=O)C1CC(F)(F)F (stereo not shown) [189 (W306)]	> 10000		17	8.5	3.5
CN1c2nc(NCc3ccc(Oc4cnc(C(F)(F)F)nc4)nc3)nc3c2N(CCC3)C(=O)C1CC(F)(F)F (stereo not shown) [198 (W307)]	> 10000		17	8.8	2.3
C[C@H]1C(=O)N2CCCc3nc(NCc4cnn(Cc5cc(C(F)(F)F)nn5C5CC5)c4)nc(c32)N1C [230 (W415)]	> 10000			42	50.8
COc1nc(C(F)(F)F)ccc1Oc1ccc(CNc2nc3c4c(n2)N(C)[C@@H](C)C(=O)N4CCC3)cn1 [231 (W417)]	> 10000		< 0.5	1.6	< 0.5
CN1c2nc(NCc3ccc(Oc4cc(C(F)(F)F)nn4C4CCOC4)nc3)nc3c2N(CCC3)C(=O)[C@]1(C)CO (stereo partly shown) [234 (W420)]	> 10000			51	66.2
C[C@H](O)[C@@]1(C)C(=O)N2CCCc3nc(NCc4ccc(Oc5cnc(C(F)(F)F)nc5)nc4)nc(c32)N1C [240 (W428)]	> 10000		16.6	11.1	
[2H]C([2H])([2H])n1nc(C(F)(F)F)cc1Oc1ccc(CNc2nc3c4c(n2)N(C)[C@@H](CO)C(=O)N4CCC3)cn1 [241 (W431)]	> 10000		9.3	11.5	
